Legend:
[1] = tested on: Fusarium oxysporum f.sp. melonis; assay: Greenhouse pot test: disease severity of melon Fusarium wilt after foliar spraying and root-cut inoculation; assay type: in vivo; conditions: Example 1, FIG. 1: 3% (w/v) glucose + 1% (w/v) organic sulfide, 400-fold dilution, foliar spray at 7 and 14 days of age; 3 weeks after inoculation; untreated control 2.33±0.21; mean ± SE
Procedure: Preparation of the inoculation source of Fusarium oxysporum f.sp. melonis (FOM): the soil-borne pathogen FOM strain used in the example is isolated from diseased melon plants in Wufeng District, Taichung City (24°02′24.6 ″N 120°39′55.0 ″E). The single spores of the strain are independently cultured on potato dextrose agar (PDA; Difco®) medium plates in a 25° C. incubator with 12 hours of light exposure per day. The mycelial pieces of the FOM strain are inoculated into ½ potato dextrose broth (PDB) and incubated in shaking flasks for 14 days. After the incubation, the culture is filtered through a double-layer Miracloth (475855 Calbiochem, Merk Darmstadt, Germany) to obtain a spore suspension with a concentration of 10^5 spores/mL, which is ready to be used in the pathogenic infection of melon root.
At the 24 hours after the final spraying, the root of test melon plants is washed with water to remove the cultivating medium. […] After 3 weeks, the symptoms and severity of wilt disease in melon plants are observed and recorded. […]
The disease severity is calculated by the following formula, wherein si represents the severity of wilt disease; n; represents the number of plants with various severity, and N represents the total number of plants investigated.
Statistical Analysis. The results are analyzed using RStudio v.4.3.0 (R) software. […]

melon's third leaf = assay: Chlorophyll fluorescence photosynthesis: electron transport rate (ETR) of melon's third leaf after foliar spraying; conditions: foliar spray, after 30 minutes of actinic light, mean ± SE, n=5
Procedure: In the following examples, a melon species Cucumis melo var. makuwa cv. Silver Light (Nongyou Seedling Co., Kaohsiung, Taiwan) is used as the test crop. Seeds of the test crop are stirred and rinsed in warm water at 65° C. for 20 minutes, then further stirred and rinsed with sterile water twice, each for 20 minutes, and then placed in a 25° C. incubator for germination for 48 hours. After the radicle has grown, the seedlings are sown in trays containing Sondermischung (perlite high) cultivating medium (Gramoflor, Germany). When the leaves are fully expanded, the seedlings are transplanted into 3.5-inch plastic pots (inner diameter: 9 cm) and continue planting. The melon plants are ready for following experiments when their first real leaves are fully expanded (the plant is about 7 days of age).
The compositions of 3% (w/v) glucose amended with 1% (w/v) an organic sulfide selected from allicin, dimethyl disulfide (DMDS), lipoic acid, methionine and taurine, with two hundred-fold and four hundred-fold dilution in water, are sprayed on the leaves of the melon seedlings, and the chlorophyll fluorescence photosynthesis of the third real leaf is investigated during the growing period of melons. […] The third real leaf of melon is clipped to measure the leaf chlorophyll fluorescence parameters. […]

SMILES	Disease severity of melon Fusarium wilt (scale 0-4) [1]	ETR (electron transport rate of PSII on third leaf of melon) (melon's third leaf; 200X dilution of 1% (w/v) organic sulfide with 3% (w/v) glucose) [μmol electrons m^−2 s^−1]	ETR (electron transport rate of PSII on third leaf of melon) (melon's third leaf; 400X dilution of 1% (w/v) organic sulfide with 3% (w/v) glucose) [μmol electrons m^−2 s^−1]
CSSC [DMDS, dimethyl disulfide]	1.83±0.25	110.24 ± 2.72	117.68 ± 3.83
NCCS(=O)(=O)O [Taurine, 2-aminoethanesulfonic acid]	2.00±0.18		
